According to US5206254A, “β-carbonyl-carboxyamides of 1,3-thiazolidines” (Boehringer Mannheim Italia S.p.A., priority 1988, dated 1993):
Structures can show the parent of a compound that is named as a salt.

Tests used:
[1] = system: cytologic pattern of BAL fluids; experiment: Cytology of bronchoalveolar lavage (BAL) fluids after tobacco smoke exposure; type: in vivo, guinea pig (male); details: smoke-exposed animals; 6 MPHE 50 mg/Kg, DSCG 100 mg/Kg, salbutamol 0.5 mg/Kg
Description: Cytologic studies of the bronochoalveolar lavage (BAL) fluids of the animals, exposed to tobacco smoke and untreated with drugs, show a statistically significant increase of the overall cell counts. Specifically, the number of epithelial cells and of eosinophils is increased, in respect to the cell content of unexposed animals.
At the end of the experiment and/or at a desired time after smoke exposure, the animal is disconnected, and the broncho-alveolar contents are examined by lavages, injecting in the trachea physiological […] solutions (10 ml×3 times). These BAL fluids are combined, centrifuged for 15 minutes at 150 g to give pellets that are suspended in physiological saline (1 ml). The total cell number of BAL fluid is counted in a Burcher camera.
Differential cell counts are made from centrifugated preparations stained with Diff-Quick® counting at least 300 cells for each sample and the % number of epithelial cells, eosinophils, neutrophils, lymphocytes and macrophages are determined.
(§1) A substance may be administered by i.v., oral, subcutaneous or intramuscular route at different times before tobacco smoke exposure. A compound is considered effective when it is able to prevent almost completely the exacerbate differential increase in the PIP and normalize the BAL cell cytologic pattern at the same dose level.

[2] = system: airways hyperreactivity, pulmonary inflation pressure (PIP); experiment: Airway hyperreactivity (PIP increase after autacoid challenge) after tobacco smoke exposure; type: in vivo, guinea pig (male); details: for prevention/inhibition of airway hyperreactivity (words): compounds: oral 20-60, i.v. 0.25-5, s.c. 2-15 mg/Kg, 6 MPHE 10-50 mg/Kg i.m., DSCG 20-100 mg/Kg i.m., salbutamol 0.5 mg/Kg i.v.
Description: In order to show this surprising pharmacological property, the compounds of the invention were tested in a bronchial hyperreactivity animal model recently developed (see Omini C. et al., 23rd Ann. Med: S.E.P.C.R., Athens 20-24th June 1988, Abstract 15S Eur. J. Resp. Dis. in press).
The airways hyperreactivity is measured as abnormal increase of the pulmonary inflation pressure (PIP) caused by the exacerbate bronchconstrictive response that follows to an autocoid challenge after active forced tobacco smoke exposure for a 10 minutes period. The abnormal PIP increase is compared with the PIP increase observed, in the same animal, before tobacco smoke, and after autacoids challenge. Male guinea pigs (400-450 g b.w.) anaesthetized with ethylurethane and pancuronium bromide were used; the recording of PIP is performed in accordance with Konzett and Rossler methods (Naumm. Schiedeberg Arch. Exp. Path/Pharmacol. 195, 71, 1940). To evidentiate such bronchial smooth muscle hyperreactivity suitable autocoids are acetylcholine, histamine, serotonine, bradykinins.
Male guinea pigs (400-450 g) are anaesthetized with ethylurethane (i.p.) and pancuronium bromide (i.v.): the trachea is cannulated and the lungs are ventilated at constant volume by connection with "Rodent respirator" Basile apparatus mod. 7025. The pulmonary inflation pressure (PIP) is measured by connection to a side-warm of the tracheal cannula of a Bell and Howell pressure transducer (mod. P 17570) that is connected to a Beckmann (mod. R 611) dynograph. The right jugular vein is catheterized for i.v. injection of autacoids and drugs. The pharmacological experiment starts with the treatment of the animal with the autocoids (for example acetylcholine by i.v. route in the interval 2.5-10 mcg/kg) in order to induce a reversible bronchoconstruction response, measured by an increase of the pulmonary inflation pressure (PIP). This increase is recorded and it is considered to represent the basal value of the animal bronochoconstrictor response to the challenge with the autocoid.
The animal is then actively exposed for a 10 minutes time period to the tobacco smoke of alighted cigarette (directly inspired by the animal). Afterwards the animal is challenged again with the autocoid, using the dosage previously injected for evokating the basal bronchoconstrictor response. The novel challenge induces an exacerbate bronochoconstrictory response and the airway hyper-reactivity is measured as the differential increase in the PIP after tobacco smoke exposure in respect to the basal value. The challenge may be repeated in the time, (2-3 hours after smoke exposure, too) until reproducible hyper-reactive responses are obtained or at different time from tobacco exposure.
as §1
Differential increases of the pulmonary inflation pressure over the basal value after autacoid challenges, ranging from 150-200% are observed after smoke exposure in the animal control group (i.e. in the absence of any pharmacological treatment).
Drug treatment may be performed using different routes: intravenous, oral, subcutaneous and/or intramuscular; the substances may be administered at different times before smoke exposure and at different dose levels.
Dose related responses have been determined for reference drugs such as 6β-methyl-prednisolone-21-hemisuccinate sodium salt (6MPHE, by i.m. route, 7 hrs. b.s.l.), sodium dichromoglycate (DSCG, by i.m. route, 2 hrs. b.s.e.) and salbutamol (by i.v. route, 20 minutes before smoke exposure); the results reported in table 4, are expressed as % protection from hyperreactive reaction. […]

cough strokes = experiment: Long lasting persistence of the antitussive action; type: in vivo, guinea pig; details: 30 mg/Kg os
Description: (§2) Cough strokes are provoked by electrical stimulation of the guinea pig tracheal mucosa. according to Cavanaugh et al., (Arch. Ing. Pharmacodyn., 220, 258, 1976). Cough strokes are stimulated both before (i.e. in the absence of drug treatment) and one hour after the drug administration. […] A group of six animals is used at each dose level; this test is particularly useful for the evaluation of long lasting effects until and after three hours from the administration.
The results showing the long lasting persistance of the antitussive action is reported in Table 3 in comparison with codeine phosphate; all the substances are administered at 30 mg/Kg by oral route.

[3] = Acute toxicity (LD50) in rats, oral; details: rat, in vivo, 14th day of observation, read-out: DL50
Description: The compounds of the invention are therapeutically useful substances, practically free of acute, subacute or chronic toxic effects. LD50 values, usually exceeding 1 g/kg body weight are measured in mice and in rats after oral and intraperitoneal (i.p.) administration of the compounds of the invention. Only N-diethylaminoethylamino, N'-[(R,S)-2-(2-methoxyphenoxymethyl)-1,3-thiazolidine]-malondiamide and N-β-pyridylmethylamino-N'-[(R,S)-2-(2-methoxy-phenoxy-methyl)-1,3-thiazolidine]-malondiamide show DL50 values of 0.25 and 0.85 g/Kg respectively after oral administration to rats at the 14th day of observation.

[4] = system: cough strokes, evokated by the two experimental models; experiment: In vivo experiments with naloxone in the two cough models; design: species or system guinea pig
[5] = system: cough strokes provoked by electrical stimulation of the guinea pig tracheal mucosa; experiment: Electrically stimulated cough stroke test (Cavanaugh et al.); type: in vivo; details: for Percent reduction of cough strokes: 15 mg/kg os, one hour after drug
Description: Table 2 refers to results with the compounds of formula (I) in the electrically stimulated cough stroke test, in comparison with codeine phosphate.
as §2

Row | Compound | prevention/inhibition of airway hyperreactivity (words) [2] | Percentage reduction of cough strokes during treatment, 1 h (cough strokes) [%] | Percentage reduction of cough strokes during treatment, 2 h (cough strokes) [%] | Percentage reduction of cough strokes during treatment, 3 h (cough strokes) [%] | Percent reduction of cough strokes [5] [%] | further results
1 | O=C(O)c1cc(=O)c2c(OCC(O)COc3cccc4oc(C(=O)O)cc(=O)c34)cccc2o1 [DSCG] | preventing airway hyperreactivity |  |  |  |  | normalization of BAL fluid cytology [1]: able to normalize the cellular pattern in the BAL fluids; % protection from hyperreactive reaction ([2]; DSCG 25 mg/kg i.m., 2 hrs before smoke exposure): 27%; % protection from hyperreactive reaction ([2]; DSCG 50 mg/kg i.m., 2 hrs before smoke exposure): 64%; % protection from hyperreactive reaction ([2]; DSCG 100 mg/kg i.m., 2 hrs before smoke exposure): 100%; prevention/inhibition of airway hyperreactivity (words) ([2]; listed as Dichromoglycate (DSCG)): effective
2 | COc1ccccc1OCC1SCCN1C(=O)CC(=O)NCc1cccnc1 (stereo not shown) |  | 80 | 67 | 60 |  | 
3 | COc1ccccc1OCC1SCCN1C(=O)CC(=O)NCc1cccnc1 (racemic) [Table 5 3, N-β-pyridylmethyl, N'-[(R,S)-2-(2-methoxy-phenoxymethyl)-1,3-thiazolidine]-malondiamide] | effective inhibitors of the hyperreactive reaction |  |  |  |  | LD50 at 336 h [3]: 850 mg/kg
4 | COc1ccccc1OCC1SCCN1C(=O)CC(=O)O (racemic) [Compound 10, (R,S)-2-(2-methoxy-phenoxymethyl)-3-carboxyacetyl-1,3-thiazolidine] | effective inhibitors of the hyperreactive reaction |  |  |  |  | 
5 | C=CCN1CC[C@]23c4c5ccc(O)c4O[C@H]2C(=O)CC[C@@]3(O)[C@H]1C5 [naloxone, reference compound] |  |  |  |  |  | protection against cough strokes by naloxone alone ([4]; 5 mg/kg s.c., both experimental models): unable to protect guinea pig against cough strokes
6 | CCN(CC)CCNC(=O)CC(=O)N1CCSC1COc1ccccc1OC (racemic) [Example 14, N-(diethylaminoethyl), N'-[(R,S)-2-(2-methoxy-phenoxymethyl)-1,3-thiazolidine]-malondiamide] |  |  |  |  |  | LD50 at 336 h [3]: 250 mg/kg
7 | CNC(=O)CC(=O)N1CCSC1COc1ccccc1OC (racemic) [Compound 11, N-methylamino-N-[(R,S)-2-(2-methoxy-phenoxymethyl)-1,3-thiazolidine]-malondiamide] |  | 24 | 48 | 60 |  | 
8 | (+)-[2-(2-methoxyphenoxymethyl)-3-ethoxycarbonyl]-1,3-thiazolidine [Compound 8] |  |  |  |  | 63 | ED50 ([5]; os, electrical stimulation (Table II)): 12 mg/kg
9 | COc1ccc2c3c1O[C@H]1[C@@H](O)C=C[C@H]4[C@@H](C2)N(C)CC[C@@]341 [Codeine phosphate, reference compound] |  | 77 | 53 | 46 | 58 | 
10 | (R,S)-2-(2-methoxy-phenoxymethyl)-3-(3-oxo-butanoyl)-1,3-thiazolidine [Compound 6] |  |  |  |  | 14 | 
11 | (R,S)-2-(2-methoxy-phenoxymethyl)-3-ethoxycarbonylacetyl-1,3-thiazolidine [Compound 7] |  | 70 | 60 | 40 | 18 | prevention/inhibition of airway hyperreactivity (words) ([2]; listed as (R,S)-2-(2-methoxyphenoxymethyl)-3-ethoxycarbonylacetyl-1,3-thiazolidine): highly effective; prevention/inhibition of airway hyperreactivity (words) ([2]; listed as (R,S)-2-[2-methoxy-phenoxymethyl)-3-ethoxycarbonylacetyl-1,3-thiazolidine): effective inhibitors of the hyperreactive reaction; protective effect after naloxone pretreatment ([4]; naloxone 5 mg/Kg s.c. pretreatment, substance 30 mg/Kg os): complete protection against cough strokes
12 | C[C@H]1C[C@@H]2[C@H]([C@@H](O)C[C@@]3(C)[C@H]2CC[C@]3(O)C(=O)COC(=O)CCC(=O)O)[C@@]2(C)C=CC(=O)C=C12 [Compound 6MPHE, 6α-methyl-prednisolone-21-hemisuccinatesodium salt] | preventing airway hyperreactivity |  |  |  |  | normalization of BAL fluid cytology [1]: able to normalize the cellular pattern in the BAL fluids; % protection from hyperreactive reaction ([2]; 6MPHE 10 mg/kg i.m., 7 hrs before smoke exposure): 65%; % protection from hyperreactive reaction ([2]; 6MPHE 25 mg/kg i.m., 7 hrs before smoke exposure): 85%; % protection from hyperreactive reaction ([2]; 6MPHE 50 mg/kg i.m., 7 hrs before smoke exposure): 100%; prevention/inhibition of airway hyperreactivity (words) ([2]; listed as 6α-methyl-prednisolone- 21-hemisuccinatesodium salt (6 MPHE)): effective
13 | CC(C)(C)NCC(O)c1ccc(O)c(CO)c1 (stereo not shown) [Salbutamol] | effective |  |  |  |  | normalization of BAL fluid cytology [1]: fails to modify the smoke induced pathological changes of the BAL fluid cytology; % protection from hyperreactive reaction ([2]; Salbutamol 5 mg/kg i.v., 20 minutes before smoke exposure): 90%
